Test results as given in patent US12427192B2, “Water soluble adjuvant and composition containing same” (Sumitomo Pharma Co., Ltd., priority 2019, dated 2025).

Legend:
[1] = system: HLA-A*02:01 transgenic mouse; test: Test 4: in vivo adjuvant activity, cocktail vaccine a, IFNγ ELISPOT
Experimental: Evaluation of in vivo adjuvant activity in HLA-A*02:01 transgenic mouse
The in vivo adjuvant activity of the compound of Example 1 and the compound of Reference example 12 was evaluated in the following procedure. To a cocktail vaccine comprising Compound of formula 4 prepared in Reference example 8 and Peptide SEQ ID No. 3 prepared in Reference example 3 with a preliminarily-emulsified composition (hereinafter, referred to as “cocktail vaccine a”) was added the compound prepared in Example 1 or the compound prepared in Reference example 12 respectively to prepare each vaccine. The vaccine was administered to a HLA-A*02:01 transgenic mouse, and the adjuvant activity of each vaccine was evaluated by the method of testing antigen-specific CTL induction.
The RMFPNAPYL (SEQ ID No. 1) in Compound of formula 4 and the VLDFAPPGA (SEQ ID No. 4) in Peptide SEQ ID No. 3 correspond to antigen peptides derived from an HLA-A*02:01-restricted WT1 protein.
HLA-A*02:01 transgenic mouse (C57BL/6CrHLA-A2.1DR1) lacks mouse MHC, and instead expresses a chimeric HLA of a human MHC (HLA-A*02:01) and a mouse MHC (H-2D^b), and HLA-DRB1*01:01. […]
The character for inducing CTLs specific to the antigen peptide (SEQ ID No. 1 or SEQ ID No. 4) by cocktail vaccine a was evaluated by measuring whether IFNγ can be produced upon stimulation of splenocytes from the mouse with the corresponding peptide. […]

[2] = system: MCA-A24/Kb-WT1 tumor cells; test: Test 5: enhancement of in vivo suppressive effect of vaccine on tumor growth; set-up: species or system mouse; details: 27 days after tumor transplantation; vaccine 7 days before and 7 days after transplantation; compared with vehicle (group a); six mice per group; 100 ng Example 1 per body in group c; FIG. 2
Experimental: Effect for Enhancing the In Vivo Suppressive Effect of Vaccine for Growth of Tumor Vaccine
A suspension of 3-methylcholanthrene in corn oil was administered to a HLA-A*24:02 transgenic mouse intradermally at the ventral region. From the tumor generated at the administration site, HLA-A*2402/Kb-expressing tumor cells were obtained. Cell lines established by stably expressing WT1 antigen peptide (SEQ ID No. 2) in the cells (herein, also referred to as MCA-A24/Kb-WT1 tumor cells) were suspended in Hanks' Balanced Salt Solution and intradermally transplanted to the ventral region of HLA-A*24:02 transgenic mouse (5×10^5 cells per mouse). The mice made to receive a vehicle (Group a), a vaccine (Group b), or a vaccine containing the compound prepared in Example 1 (Group c) were classified. Six mice per group were used. Seven days before the tumor transplantation and seven days after the tumor transplantation, for the mice of Group a, a composition comprising water for injection was emulsified with an equal volume of Montanide ISA 51 VG and the emulsion was administered intradermally at the tail base area (0.1 mL per administration per mouse). […] The tumor diameter was measured 27 days after the tumor transplantation and the tumor volume was calculated.

CCCCCNc1nc(N)nc(C)c1Cc1ccc(CN(C)CCOCCOCCOCCOCCO)cc1OC [Example 1, 1-(4-{[2-amino-4-methyl-6-(pentylamino)pyrimidin-5-yl]methyl}-3-methoxyphenyl)-2-methyl-5,8,11,14-tetraoxa-2-azahexadecan-16-ol·trifluoroacetate]
CTL counts responsive to Peptide of SEQ ID No. 1 or SEQ ID No. 4 compared with Reference example 12 ([1]; added to cocktail vaccine a, 32.5 ng Example 1 vs 22.5 ng Reference example 12 per body): more
induced CTL count on adding the compound to the vaccine ([1]; cocktail vaccine a, 32.5 ng Example 1 per body): increases
growth of tumor cells (average tumor volume) [2]: more potently suppressed the growth of tumor cells
